Experimental data taken from patent US9763944B2 (Novartis AG, priority 2008, dated 2017).

Settings: GIST patients, 400 or 600 mg/day oral
Description: METHODS: The IM plasma levels were analyzed in a subset of patients (n=73) for whom PK data on day 1 and at steady state (Day 29) was available (n=34 and 39 for 400 and 600 mg/day, respectively). The effect of patients demographics and blood chemistry parameters on IM PK was evaluated using a population PK approach. A relationship between IM plasma exposure and clinical outcome was explored by grouping patients into quartiles according to IM trough levels (Cmin). The clinical outcome parameters evaluated include overall objective responses (OOR=CR+PR+SD), time to progression (TTP), and KIT mutations.

- inter-patient variability in IM exposure: large inter-patient variability
SMILES: Cc1ccc(NC(=O)c2ccc(CN3CCN(C)CC3)cc2)cc1Nc1nccc(-c2cccnc2)n1 [imatinib, N-{5-[4-(4-methyl-piperazino-methyl)-benzoylamido]-2-methylphenyl}-4-(3-pyridyl)-2-pyrimidine-amine]
